From the NIST ThermoML archive (doi:10.1016/j.jct.2008.04.013)
Values joined by “and” are separate entries in the source; they are usually repeats but may differ in a detail not shown here. Identical values can stand only once.

Settings: Liquid, Calculated from knudsen effusion weight loss

Cc1ccsc1C(=O)O [3-methyl-2-thiophenecarboxylic acid]
Settings | vapor or sublimation pressure
312.13 K | 0.000104 kPa and 0.000102 kPa
314.2 K | 0.000129 kPa and 0.00013 kPa and 0.000126 kPa
316.22 K | 0.000164 kPa and 0.000162 kPa and 0.000159 kPa
318.13 K | 0.000205 kPa and 0.000204 kPa and 0.000209 kPa
320.19 K | 0.000264 kPa and 0.000261 kPa and 0.000254 kPa
322.21 K | 0.000323 kPa and 0.00032 kPa and 0.000314 kPa
324.14 K | 0.000412 kPa and 0.000407 kPa and 0.000418 kPa
326.18 K | 0.000507 kPa and 0.000503 kPa
328.21 K | 0.000636 kPa and 0.00063 kPa
330.15 K | 0.000798 kPa and 0.000786 kPa and 0.000769 kPa
332.23 K | 0.000984 kPa and 0.000972 kPa and 0.00094 kPa
334.2 K | 0.001191 kPa and 0.001174 kPa and 0.001146 kPa

CC(=O)c1ccc(C(=O)O)s1 [5-acetyl-2-thiophenecarboxylic acid]
Settings | vapor or sublimation pressure
364.15 K | 0.00011 kPa and 0.000108 kPa and 0.000105 kPa
366.18 K | 0.000133 kPa and 0.000135 kPa and 0.000129 kPa
368.18 K | 0.000163 kPa and 0.00016 kPa
370.15 K | 0.000205 kPa and 0.0002 kPa and 0.000208 kPa
372.17 K | 0.000252 kPa and 0.00025 kPa and 0.000244 kPa
374.17 K | 0.000303 kPa and 0.000307 kPa and 0.000298 kPa
376.15 K | 0.000392 kPa and 0.000387 kPa and 0.000376 kPa
378.17 K | 0.000471 kPa and 0.000472 kPa and 0.000451 kPa
380.18 K | 0.000578 kPa and 0.000568 kPa and 0.000548 kPa
382.18 K | 0.000707 kPa and 0.000698 kPa and 0.000683 kPa
384.18 K | 0.000819 kPa and 0.000846 kPa and 0.000816 kPa
386.17 K | 0.001019 kPa and 0.001018 kPa and 0.000988 kPa

Cc1ccc(C(=O)O)s1 [5-methyl-2-thiophenecarboxylic acid]
Settings | vapor or sublimation pressure
316.29 K | 9e-05 kPa and 8.8e-05 kPa and 8.9e-05 kPa
318.25 K | 0.000113 kPa and 0.000112 kPa and 0.00011 kPa
320.12 K | 0.000139 kPa
322.28 K | 0.00018 kPa and 0.000183 kPa
324.24 K | 0.000229 kPa and 0.000226 kPa and 0.000222 kPa
326.12 K | 0.000273 kPa and 0.000278 kPa and 0.000276 kPa
328.28 K | 0.000341 kPa and 0.000356 kPa and 0.000355 kPa
330.22 K | 0.000441 kPa and 0.000439 kPa and 0.000427 kPa
332.11 K | 0.00054 kPa and 0.000539 kPa
334.28 K | 0.0007 kPa and 0.000697 kPa and 0.00069 kPa
336.22 K | 0.000859 kPa and 0.000855 kPa and 0.000843 kPa
338.11 K | 0.001049 kPa and 0.001053 kPa and 0.001028 kPa
